Test results from article PMC9536713, “Synthesis and Preclinical Evaluation of ^177Lu-Labeled Radiohybrid PSMA Ligands for Endoradiotherapy of Prostate Cancer” (Journal of Nuclear Medicine, 2022).
Where two headings read alike, the source gives them in different places.

Tests used:
[1] = Lipophilicity, n-octanol/phosphate-buffered saline distribution (log D7.4); type: physicochemical; conditions: pH 7.4, n = 6
Experimental: Approximately 1 MBq of the ^177Lu-labeled PSMA ligand was dissolved in 1 mL of a 1:1 mixture (v/v) of phosphate-buffered saline (pH 7.4) and n-octanol (n = 6). After vigorous mixing of the suspension for 3 min, the vial was centrifuged at 15,000g for 3 min, and 100-μL aliquots of both layers were measured in a γ-counter. Finally, the ratio of the radioactivity detected in the n-octanol sample and the phosphate-buffered saline buffer was calculated and expressed as distribution ratio log D7.4.

[2] = target: T1, human serum albumin (HSA) (Homo sapiens, UniProt P02768); experiment: Binding to HSA by albumin-mediated size-exclusion chromatography (AMSEC), apparent molecular weight; type: in vitro ADME; conditions: HSA buffer at physiologic concentration as mobile phase, room temperature, window 2.1-70.2 kDa
T1 construct: purchased Biowest
T1 sequence (P02768 25-609): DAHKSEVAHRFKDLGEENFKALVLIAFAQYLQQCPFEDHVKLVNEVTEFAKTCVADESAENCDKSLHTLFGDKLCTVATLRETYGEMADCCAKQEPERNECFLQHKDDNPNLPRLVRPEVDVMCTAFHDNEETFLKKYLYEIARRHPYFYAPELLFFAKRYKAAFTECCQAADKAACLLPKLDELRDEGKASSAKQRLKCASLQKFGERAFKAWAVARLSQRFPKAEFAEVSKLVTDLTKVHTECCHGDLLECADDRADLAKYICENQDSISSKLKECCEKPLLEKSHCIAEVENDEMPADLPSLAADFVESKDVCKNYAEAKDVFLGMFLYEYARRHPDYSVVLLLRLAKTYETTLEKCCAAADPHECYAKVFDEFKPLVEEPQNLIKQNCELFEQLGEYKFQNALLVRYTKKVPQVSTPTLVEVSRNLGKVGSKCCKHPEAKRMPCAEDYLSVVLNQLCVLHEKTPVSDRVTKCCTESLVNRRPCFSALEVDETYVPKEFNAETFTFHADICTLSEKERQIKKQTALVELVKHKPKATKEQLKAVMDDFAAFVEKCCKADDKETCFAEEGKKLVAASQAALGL
Experimental: Binding of ^177Lu-labeled ligands to HSA was assessed by albumin-mediated size-exclusion chromatography (AMSEC), a novel method that has recently been developed by our group to determine the apparent molecular weight (AMW) of a compound in the presence of HSA. A dedicated and detailed description of the AMSEC method will be published elsewhere to cover the context and the development process of this method in its entirety. Briefly, a gel filtration size-exclusion column (Superdex 75 Increase 10/300 GL; fractionation range, 70–3 kDa; GE Healthcare) was calibrated as recommended by the manufacturer using a commercially available set of proteins (Gel Filtration LMW Calibration Kit; GE Healthcare). AMSEC experiments were performed by injection of the various radioligands using an HSA buffer at physiologic concentration (Biowest) as the mobile phase at room temperature. Depending on the strength of the HSA/ligand interaction during the chromatographic procedure, an injected radioligand (1.0 MBq, 10–20 GBq/μmol) can show a reduced retention time that correlates to AMWs higher than the actual, physical, molecular weight (the latter being for all investigated ligands < 2 kDa, and thus below the column fractionation range). The stronger this interaction, the longer the mean time the ligand is bound to HSA during the chromatographic process and the faster the ligand is eluted from the column. By means of calibration, the retention time can be translated into a ligand-specific AMW (expressed in kDa) as a parameter allowing quantification of the extent of HSA binding. The detection window ranges between 2.1 kDa (cutoff value, determined by [^18F]fluoride; no HSA interaction) and 70.2 kDa (experimental molecular weight of HSA; maximum HSA interaction). [^177Lu]Lu-rhPSMA-7.3 served as an internal standard during AMSEC studies (30.4 ± 0.5 kDa; n = 10).

[3] = test system: LNCaP tumor xenografts; experiment: Biodistribution and small-animal SPECT/CT in LNCaP tumor-bearing mice, 24 h after injection; type: in vivo, male CB-17 SCID mice
Experimental: All animal experiments were conducted in accordance with general animal welfare regulations in Germany (German animal protection act, as amended on May 18, 2018, article 141 G, version March 29, 2017, I 626, approval 55.2-1-54-2532-71-13) and the institutional guidelines for the care and use of animals. LNCaP tumor xenografts were established in 6- to 8-wk-old male CB-17 SCID mice as described previously ([8]).
The ^177Lu-labeled PSMA ligands (2–5 MBq; 0.1 nmol) were injected under isoflurane anesthesia into the tail vein of mice, which were euthanized 24 h after injection (n = 4–5). Selected organs were removed, weighed, and measured in a γ-counter. All rhPSMA ligands were evaluated during the same period (first quarter of 2020), whereas ^177Lu-labeled PSMA-617 and PSMA I&T ([17]) were assessed in 2016, using the identical cell line, mouse model, and experimental procedure.
Static images of ^177Lu-labeled ligands in euthanized mice were recorded 24 h after injection directly after blood collection, with an acquisition time of 45 min using a high-energy, general-purpose rat-and-mouse collimator and a stepwise multiplanar bed movement. For imaging studies, a VECTor4 small-animal SPECT/PET/optical imaging/CT device from MILabs was applied. Data were reconstructed using MILabs.Rec software (version 10.02) and PMOD software (version 4.0; PMOD Technologies LLC). After imaging, the mice underwent biodistribution studies.

[4] = target: T2, PSMA (Homo sapiens, UniProt Q04609); experiment: Competitive binding (IC50) on LNCaP cells against ([125I]IBA)KuE
T2 construct: endogenous in cells; host or cells: LNCaP cells
T2 sequence (Q04609 whole entry): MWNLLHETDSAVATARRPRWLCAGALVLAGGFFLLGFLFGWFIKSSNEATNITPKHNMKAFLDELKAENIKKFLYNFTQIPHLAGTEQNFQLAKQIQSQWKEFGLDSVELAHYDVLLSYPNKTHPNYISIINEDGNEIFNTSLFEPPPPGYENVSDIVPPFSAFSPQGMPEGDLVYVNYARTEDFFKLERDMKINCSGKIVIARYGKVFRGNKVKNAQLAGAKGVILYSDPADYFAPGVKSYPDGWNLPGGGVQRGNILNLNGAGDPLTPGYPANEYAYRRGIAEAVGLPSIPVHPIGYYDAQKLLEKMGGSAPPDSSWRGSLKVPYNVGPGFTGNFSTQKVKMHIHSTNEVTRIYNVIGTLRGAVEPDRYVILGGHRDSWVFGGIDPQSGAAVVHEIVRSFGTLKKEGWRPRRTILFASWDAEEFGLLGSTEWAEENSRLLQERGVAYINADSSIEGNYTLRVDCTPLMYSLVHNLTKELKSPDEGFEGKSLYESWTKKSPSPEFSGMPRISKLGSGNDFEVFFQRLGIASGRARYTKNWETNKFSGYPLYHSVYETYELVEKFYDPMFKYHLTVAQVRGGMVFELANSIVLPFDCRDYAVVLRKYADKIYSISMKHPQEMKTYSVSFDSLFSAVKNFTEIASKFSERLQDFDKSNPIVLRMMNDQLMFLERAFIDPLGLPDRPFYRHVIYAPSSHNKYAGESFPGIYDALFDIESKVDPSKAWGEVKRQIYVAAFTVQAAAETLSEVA
Experimental: (§1) Competitive binding studies were determined on LNCaP cells (1.5 × 10^5 cells in 0.25 mL/well) after incubation at 4°C for 1 h, using (((S)-1-carboxy-5-(4-([^125I]iodo)benzamido)pentyl)carbamoyl)-L-glutamic acid ([^125I]IBA)KuE; 0.2 nM/well) as the reference radioligand (n = 3). Internalization studies of the radiolabeled ligands (1.0 nM/well) were performed on LNCaP cells (1.25 × 10^5 cells in 0.25 mL/well) at 37°C for 1 h and accompanied by ([^125I]IBA)KuE (0.2 nM/well) as a reference. Data were corrected for nonspecific binding and normalized to the specific internalization observed for the reference (n = 3), as previously published ([8]).

[5] = target: T3, PSMA (LNCaP cells) (Homo sapiens, UniProt Q04609); experiment: PSMA-mediated internalization into LNCaP cells; type: cell-based; conditions: 1 h, 37°C, 1.0 nM/well, n = 3
T3 construct: endogenous in cells; host or cells: LNCaP cells
T3 sequence (Q04609 whole entry): as above
Experimental: as §1

[6] = design: method as in earlier work; conditions: patients; cited from earlier work
[7] = test system: LNCaP tumor xenografts; design: method as in PMID 30136051; conditions: 24 h after injection, cited from earlier work
[8] = design: method as in PMID 34531260; conditions: patients; cited from earlier work
[9] = patients; cited from earlier work
[10] = 24 h after injection, LNCaP tumor-bearing SCID mice, mean ± SD, n = 4-5
[11] = 24 h after injection, LNCaP tumor-bearing mice
[12] = male, CB-17 SCID, mouse, in vivo, 24 h
[13] = LNCaP tumor-bearing SCID mice, identical conditions
[14] = LNCaP tumor-bearing mice, from previously published data

Structure (SMILES): CC(C)(C)[Si](F)(c1ccc(C(=O)NC[C@@H](NC(=O)CN2CCN(CC(=O)[O-])CCN(CC(=O)[O-])CCN(CC(=O)[O-])CC2)C(=O)N[C@H](CCCCNC(=O)CCC(=O)NCCC[C@@H](NC(=O)CC[C@H](NC(=O)N[C@@H](CCC(=O)O)C(=O)O)C(=O)O)C(=O)O)C(=O)O)cc1)C(C)(C)C.[177Lu+3] [[^177Lu]Lu-rhPSMA-10.1]
- log D7.4 [1]: −3.8
- apparent molecular weight (AMW) [2]: 25.1 kDa
- kidney uptake as percentage of that of [177Lu]Lu-rhPSMA-7.3 ([3]; 24 h after injection): 20%
- tumor-to-blood ratio, times higher than for [177Lu]Lu-PSMA-617 ([3]; 24 h after injection): 8 times
- tumor-to-blood ratio, times higher than for [177Lu]Lu-rhPSMA-7.3 ([3]; 24 h after injection): 3 times
- kidney uptake [3, 10]: 2.0 ± 0.8 %ID/g
- tumor uptake [3, 10]: 9.8 ± 0.3 %ID/g
- tumor-to-blood ratio [3, 11]: 11,498
- tumor-to-kidney ratio [3, 11]: 5.7
- tracer uptake in tumor of the imaged mouse ([3]; single mouse of SPECT/CT image, 24 h after injection, from subsequent biodistribution): 9.4 %ID/g

Structure (SMILES): O=C(O)CC[C@H](NC(=O)N[C@@H](CCCCNC(=O)[C@H](Cc1ccc2ccccc2c1)NC(=O)[C@H]1CC[C@H](CNC(=O)CN2CCN(CC(=O)O)CCN(CC(=O)O)CCN(CC(=O)O)CC2)CC1)C(=O)O)C(=O)O [[^177Lu]Lu-PSMA-617, metal not drawn]
- IC50 [4]: 3.3 ± 0.2 nM
- PSMA-mediated internalization as percentage of reference ligand ([125I]IBA)KuE [5]: 203% ± 10%
- apparent molecular weight (AMW) [2]: 13.7 kDa
- tumor-to-kidney ratio [3, 11]: 5.9
- kidney uptake [3, 12]: 1.4 ± 0.4 %ID/g
- tumor uptake [3, 12]: 7.5 ± 0.9 %ID/g
- tumor-to-blood ratio [3, 12]: 1,424

Structure (SMILES): CC(C)(C)[Si]([18F])(c1ccc(C(=O)NC[C@@H](NC(=O)CC[C@@H](C(=O)O)N2CCN(CC(=O)[O-])CCN(CC(=O)[O-])CCN(CC(=O)[O-])CC2)C(=O)N[C@H](CCCCNC(=O)CCC(=O)NCCC[C@@H](NC(=O)CC[C@H](NC(=O)N[C@@H](CCC(=O)O)C(=O)O)C(=O)O)C(=O)O)C(=O)O)cc1)C(C)(C)C.[Ga+3] [[^18F]Ga-rhPSMA-7.3]
- fold higher tumor uptake than diastereomeric mixture [18F]Ga-rhPSMA-7 [6]: 1.6 fold
- fold lower excretion into the bladder than diastereomeric mixture [18F]Ga-rhPSMA-7 [6]: 5 fold
- fold lower kidney uptake than diastereomeric mixture [18F]Ga-rhPSMA-7 [6]: 1.6 fold

Structure (SMILES): O=C([O-])CC[C@H](NC(=O)N[C@@H](CCCCNC(=O)CCCCCCC(=O)NCCCC[C@@H](NC(=O)[C@@H](Cc1ccccc1)NC(=O)[C@@H](Cc1ccc(O)c(I)c1)NC(=O)CC[C@H](C(=O)[O-])N1CCN(CC(=O)[O-])CCN(CC(=O)[O-])CCN(CC(=O)[O-])CC1)C(=O)[O-])C(=O)[O-])C(=O)[O-].[177Lu+3].[H+].[H+].[H+].[H+].[H+] [[^177Lu]Lu-PSMA I&T]
- IC50 ([4]; LNCaP cells, 1 h, 4°C, ([125I]IBA)KuE 0.2 nM/well as reference radioligand, n = 3, read-out: PSMA binding affinity (half-maximal inhibitory concentration)): 4.2 ± 0.8 nM
- PSMA-mediated internalization as percentage of reference ligand ([125I]IBA)KuE [5]: 145% ± 14%
- apparent molecular weight (AMW) [2]: 5.3 kDa
- kidney uptake [7, 13]: 34.7 ± 17.2 %ID/g
- tumor uptake [7, 13]: 4.1 ± 1.1 %ID/g
- tumor-to-blood ratio [7, 14]: 408
- tumor-to-kidney ratio [7, 14]: 0.2
- effective dose (tumor) [8]: 2.6 ± 2.4 mGy/MBq
- absorbed dose to the kidney [9]: 0.7 ± 0.2 Gy/GBq
